Assay results published in paper doi:10.1101/2024.03.13.583470v1, “SARS-CoV-2 methyltransferase nsp10-16 in complex with natural and drug-like purine analogs for guiding structure-based drug discovery” (biorxiv, 2024).

Experiments:
[1] = molecular target: T1, nsp10-16 (Severe acute respiratory syndrome coronavirus 2, UniProt P0DTD1); test: ITC or other biophysical method (nanoDSF, MST), not given; assay type: binding
T1 construct: gene rep

[2] = molecular target: T1, nsp10-16; test: X-ray crystallography, soaking; assay type: binding; conditions: SAM site, fully replaces SAM; 10 mM soak, pH 6.5

SMILES	KD [1]	X-ray crystallography, soaking [2]
C[S+](CC[C@H](N)C(=O)O)C[C@H]1O[C@@H](n2cnc3c(N)ncnc32)[C@H](O)[C@@H]1O (some centres unmarked) [S-adenosyl methionine]	measurable binding of the tested ligands within the investigated ligand concentrations applied, except for	
Nc1ncnc2c1ncn2[C@@H]1O[C@H](CO)[C@@H](O)[C@H]1O [adenosine]		electron density is observed in the adenosine cavity while SAM is fully replaced
